# Entries after “also recorded” stand apart in the source; their conditions may differ. Counter-ions that a name gives are not always drawn. Like-named read-outs stand apart in the source and are kept apart here.
# Columns and labels:
# LTA4 hydrolase [1] = target: T1, LTA4 hydrolase (Homo sapiens, UniProt P09960); conditions: literature; cited from earlier work
# T1 sequence (P09960 1-611): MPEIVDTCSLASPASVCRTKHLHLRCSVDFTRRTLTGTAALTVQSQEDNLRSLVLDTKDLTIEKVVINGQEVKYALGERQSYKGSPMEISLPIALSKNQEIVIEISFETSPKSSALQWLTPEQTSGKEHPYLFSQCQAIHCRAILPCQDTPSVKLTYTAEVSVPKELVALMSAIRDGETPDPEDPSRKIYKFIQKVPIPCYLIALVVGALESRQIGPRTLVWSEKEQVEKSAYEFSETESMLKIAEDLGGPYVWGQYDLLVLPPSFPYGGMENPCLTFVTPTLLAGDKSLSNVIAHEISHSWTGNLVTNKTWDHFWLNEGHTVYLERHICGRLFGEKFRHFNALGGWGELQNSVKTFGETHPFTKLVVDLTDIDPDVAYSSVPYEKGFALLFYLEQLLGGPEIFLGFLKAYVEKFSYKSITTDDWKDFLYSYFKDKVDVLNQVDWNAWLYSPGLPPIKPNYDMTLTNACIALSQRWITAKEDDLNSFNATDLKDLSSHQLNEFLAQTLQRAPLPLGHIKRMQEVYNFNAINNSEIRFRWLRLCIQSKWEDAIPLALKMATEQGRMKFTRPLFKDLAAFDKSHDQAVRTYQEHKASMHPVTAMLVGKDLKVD
# [2] = target: T2, LTA4 hydrolase (epoxide hydrolase activity) (Homo sapiens, UniProt P09960); assay: Inhibition of epoxide hydrolase activity of LTA4 hydrolase, LTA4 as substrate; assay type: biochemical
# T2 construct: obtained from human leukocytes and was purified to apparent homogeneity; from tissue; host or cells: human leukocytes (purified to apparent homogeneity)
# T2 sequence (P09960 1-611): T1 sequence (P09960 1-611)
# LTA4 hydrolase [3] = target: T1, LTA4 hydrolase; assay: Inhibition of LTA4 hydrolase, amidase (aminopeptidase) activity, L-alanyl p-nitroanilide as substrate; assay type: biochemical; design: LTA4 hydrolase purified from human leukocytes; from tissue; host or cells: human leukocytes (purified enzyme); conditions: for Ki: Dixon plot
# Thromboxane B2 (TXB2) = assay: Inhibition of thromboxane B2 (TXB2) in calcium ionophore A-23187-stimulated human blood; assay type: cell-based
# Leukotriene B4 (LTB4) = assay: Inhibition of leukotriene B4 (LTB4) in calcium ionophore A-23187-stimulated human blood; assay type: cell-based; conditions: Homo sapiens
# [4] = target: cytosolic leucine aminopeptidase; assay: Inhibition of cytosolic leucine aminopeptidase; assay type: biochemical
# LTA4 hydrolase [5] = target: T1, LTA4 hydrolase; assay: Kinetic parameters of LTA4 hydrolase-catalyzed hydrolysis of LTA4 and amide substrates; assay type: biochemical
# Procedure: Several amino acid amides were assayed as substrates for LTA4 hydrolase. Yuan et al., Bioorg. & Med. Chem. Lett., 1:551 (1991).
# ^a Determined in 50 mM TrisCl, pH 7.6, in the presence of 0.1 M NaCl, […]
# LTA4 hydrolase [6] = target: T1, LTA4 hydrolase; conditions: LTA4 as substrate, Radmark et al., cited from earlier work
# [7] = L-alanyl p-nitroanilide 1.5 mM, pH 8.0
# [8] = Table 3, 1 μM, read-out: % Inhibition TXB2
# [9] = Table 3, 3 μM, read-out: % Inhibition TXB2
# [10] = Table 3, 10 μM, read-out: % Inhibition TXB2
# [11] = Table 4, 10 μM, read-out: % Inhibition TXB2
# [12] = Table 3, read-out: % Inhibition LTB4
# [13] = Table 4, read-out: % Inhibition LTB4
# [14] = L-alanyl p-nitroanilide 1.5 mM, pH 8.0, thiols with 5 mM DTT
# [15] = Table 5, read-out: IC50 Epoxide Hydrolase
# [16] = read-out: % Inhibition LTB4, Table 3
# [17] = Table 1, 50 mM TrisCl, pH 7.6, 0.1 M NaCl
smiles,measurement,setting,value
CC(C)C[C@H](NC(=O)[C@@H](O)[C@H](N)Cc1ccccc1)C(=O)O [Bestatin],"inhibition of LTA4 hydrolase, type of inhibition (in words)",LTA4 hydrolase [1],reversible inhibitors
"C[C@H](CS)C(=O)N1CCC[C@H]1C(=O)O [Captopril, reference compound]",IC50,[2],240 µM
same,"inhibition of LTA4 hydrolase, type of inhibition (in words)",LTA4 hydrolase [1],reversible inhibitors
"COC(=O)[C@H](O)[C@@H](N)Cc1ccccc1 [Compound 1, (2R, 3S)-AHPA methyl ester]",inhibition of LTA4 hydrolase (in words),LTA4 hydrolase [3],poor or no inhibition
"COC(=O)[C@@H](O)[C@@H](N)Cc1ccccc1 [Compound 2, (2S, 3S)-AHPA methyl ester]",Ki,LTA4 hydrolase [3]; [7],50 µM
"COC(=O)[C@@H](O)[C@H](N)Cc1ccccc1 [Compound 3, (2S, 3R)-AHPA methyl ester]",inhibition of LTA4 hydrolase (in words),LTA4 hydrolase [3],poor or no inhibition; also recorded: exhibited no activity
"COC(=O)[C@H](O)[C@H](N)Cc1ccccc1 [Compound 4, (2R, 3R)-AHPA methyl ester]",inhibition of LTA4 hydrolase (in words),LTA4 hydrolase [3],poor or no inhibition
"N[C@@H](Cc1ccccc1)[C@H](O)C(=O)O [Compound 5, (2S,3S)-AHPA]",inhibition of LTA4 hydrolase (in words),LTA4 hydrolase [3],loss of their inhibition potency
"N[C@H](Cc1ccccc1)[C@H](O)C(=O)O [Compound 6, (2S,3R)-AHPA]",inhibition of LTA4 hydrolase (in words),LTA4 hydrolase [3],loss of their inhibition potency
"CC(C)C[C@H](NC(=O)[C@@H](O)[C@@H](N)Cc1ccccc1)C(=O)O [Compound 7, (2S, 3S)-AHPA-L-Leu]",inhibition at 1 µM,Thromboxane B2 (TXB2); [8],21%
same,inhibition at 3 µM,Thromboxane B2 (TXB2); [9],15%
same,inhibition at 10 µM,Thromboxane B2 (TXB2); [10],24%
same,inhibition at 10 µM,Thromboxane B2 (TXB2); [11],0%
same,inhibition at 3 µM,Leukotriene B4 (LTB4); [12],10%
same,inhibition at 10 µM,Leukotriene B4 (LTB4); [12],37%
same,inhibition at 10 µM,Leukotriene B4 (LTB4); [13],25%
"N[C@@H](Cc1ccccc1)[C@H](O)C(=O)NCC(=O)O [Compound 8, (2S, 3S) -AHPA-Gly]",Ki,LTA4 hydrolase [3]; [7],15 µM
same,IC50,LTA4 hydrolase [3]; [14],15 µM
N[C@H](Cc1ccccc1)[C@H](O)C(=O)NCCC(=O)O [Compound 9],IC50,LTA4 hydrolase [3]; [14],100 µM
"N[C@@H](Cc1ccccc1)[C@H](O)C(=O)NCCC(=O)O [Compound 10, (2S, 3S) -AHPA-β-Ala]",inhibition at 1 µM,Thromboxane B2 (TXB2); [8],12%
same,inhibition at 3 µM,Thromboxane B2 (TXB2); [9],21%
same,inhibition at 10 µM,Thromboxane B2 (TXB2); [10],19%
same,inhibition at 1 µM,Leukotriene B4 (LTB4); [12],14%
same,inhibition at 3 µM,Leukotriene B4 (LTB4); [12],39%
same,inhibition at 10 µM,Leukotriene B4 (LTB4); [12],15%
same,IC50,LTA4 hydrolase [3]; [14],80 µM
COC(=O)C(S)[C@@H](N)Cc1ccccc1 (stereo partly drawn) [Compound 11],inhibition of LTA4 hydrolase (in words),LTA4 hydrolase [3],poor inhibitors
COC(=O)C(S)[C@H](N)Cc1ccccc1 (stereo partly drawn) [Compound 12],inhibition of LTA4 hydrolase (in words),LTA4 hydrolase [3],poor inhibitors
NC(Cc1ccccc1)P(=O)(O)NCC(=O)O (stereo not drawn) [Compound 16],inhibition of LTA4 hydrolase (in words),LTA4 hydrolase [3],a much weaker inhibitor than Compound 8
CCOC(=O)CC(F)(F)C(=O)/C=C/c1ccccc1 [Compound 17],inhibition of the enzyme at 1 mM concentration (in words),LTA4 hydrolase [3],did not inhibit the enzyme
CCOC(=O)C(F)(F)C(=O)c1nc[nH]c1C [Compound 18],inhibition of the enzyme at 1 mM concentration (in words),LTA4 hydrolase [3],did not inhibit the enzyme
same,IC50,LTA4 hydrolase [3]; footnote d: less than 10 percent inhibition was observed at this concentration,> 1000 µM
N[C@@H](Cc1ccccc1)[C@H](O)C(=O)OCc1ccccc1 [Compound 20],IC50,[2]; [15],100 µM
same,inhibition of LTA4 hydrolase (in words),LTA4 hydrolase [3],bound more tightly than the amide
same,IC50,LTA4 hydrolase [3]; [14],0.8 µM
COC(=O)C(=O)[C@@H](N)Cc1ccccc1 [Compound 21],inhibition at 10 µM,Thromboxane B2 (TXB2); [11],0%
same,inhibition at 10 µM,Leukotriene B4 (LTB4); [13],8%
same,inhibition of LTA4 hydrolase (in words),LTA4 hydrolase [3],comparable with Compound 2
same,IC50,LTA4 hydrolase [3]; [14],80 µM
CC(C)C[C@H](NC(=O)C(=O)[C@@H](N)Cc1ccccc1)C(=O)O [Compound 22],inhibition of LTA4 hydrolase (in words),LTA4 hydrolase [3],better than the corresponding α-(S)--OH derivative Compound 7
same,IC50,LTA4 hydrolase [3]; [14],0.5 µM
COC(=O)[C@@H](O)[C@@H](N)Cc1ccc(OCc2ccccc2)cc1 [Compound 23],IC50,LTA4 hydrolase [3]; [14],20 µM
N[C@@H](Cc1ccc(OCc2ccccc2)cc1)C(=O)C(=O)OCc1ccccc1 [Compound 26],IC50,[4],> 100 µM
same,inhibition at 1 µM,"Thromboxane B2 (TXB2); read-out: % Inhibition TXB2, Table 3, 1 μM",8%
same,inhibition at 3 µM,"Thromboxane B2 (TXB2); read-out: % Inhibition TXB2, Table 3, 3 μM",7%
same,inhibition at 10 µM,"Thromboxane B2 (TXB2); read-out: % Inhibition TXB2, Table 3, 10 μM",28%
same,inhibition at 1 µM,Leukotriene B4 (LTB4); [16],15%
same,inhibition at 3 µM,Leukotriene B4 (LTB4); [16],17%
same,inhibition at 10 µM,Leukotriene B4 (LTB4); [16],24%
"NC(CSSCC(N)Cc1ccc(OCc2ccccc2)cc1)Cc1ccc(OCc2ccccc2)cc1 [Compound 27a, Di-((2S)-3-[4-(benzyloxy)phenyl]-2-amino-propane)-disulphide HCl]",inhibition at 10 µM,Thromboxane B2 (TXB2); [11],24%
same,inhibition at 10 µM,Leukotriene B4 (LTB4); [13],100%
same,IC50,"Leukotriene B4 (LTB4); concentrations of about 0.3-10 μM, readout not restated, read-out: IC50 in this assay (human blood)",~810 nM
N[C@@H](Cc1ccc(OCc2ccccc2)cc1)C(=O)c1cccc(C(=O)O)c1 [Compound 28],inhibition at 10 µM,Thromboxane B2 (TXB2); [11],0%
same,inhibition at 10 µM,Leukotriene B4 (LTB4); [13],16%
same,IC50,LTA4 hydrolase [3]; [14],3 µM
N[C@@H](Cc1ccc(OCc2ccccc2)cc1)C(=O)c1ccc(C(F)(F)F)cc1 [Compound 29],IC50,[2]; [15],> 100 µM
same,inhibition at 10 µM,Thromboxane B2 (TXB2); [11],0%
same,IC50,LTA4 hydrolase [3]; [14],10 µM
N[C@@H](Cc1ccccc1)C(=O)Cc1ccccc1 [Compound 30],IC50,[2]; [15],> 100 µM
same,inhibition at 10 µM,Thromboxane B2 (TXB2); [11],6%
same,inhibition at 10 µM,Leukotriene B4 (LTB4); [13],15%
same,Ki,LTA4 hydrolase [3]; [7],14 µM
"N[C@@H](Cc1ccccc1)[C@H](O)Cc1ccccc1 [Compound 44, (2R, 3S)-1,4-Diphenyl-2-hydroxy-3-amino-butane HCl]",IC50,LTA4 hydrolase [3]; [14],140 µM
"N[C@@H](Cc1ccccc1)C(=O)CCCC(=O)O [Compound 45, (6S) -5-Oxo-6-amino-7-phenyl-heptanoic acid HCl]",inhibition at 10 µM,Thromboxane B2 (TXB2); [11],12%
same,inhibition at 10 µM,Leukotriene B4 (LTB4); [13],11%
same,IC50,LTA4 hydrolase [3]; [14],20 µM
"N[C@@H](Cc1ccc(OCc2ccccc2)cc1)C(=O)CCCc1ccccc1 [Compound 54, (2S)-1-[4-(Benzyloxy)phenyl]-6-phenyl-2-amino-3-oxo-hexane HCl]",IC50,LTA4 hydrolase [3]; [7],0.03 µM
"NC[C@@H](N)Cc1ccc(OCc2ccc3ccccc3c2)cc1 [Compound 60, (2S) -3-[4-(2-Naphthylmethyloxy)phenyl]-1,2-diamino-propane HCl]",IC50,LTA4 hydrolase [3]; [14],0.55 µM
"C[C@@H](N)C(=O)Nc1ccc([N+](=O)[O-])cc1 [D-Ala p-nitroanilide, D-Alanine p-nitroanilide]",acceptance as substrate for LTA4 hydrolase (in words),LTA4 hydrolase [5],not acceptable
same,Vmax,LTA4 hydrolase [5]; [17],0 nmol/min/mg
"C[C@H](N)C(=O)Nc1ccc([N+](=O)[O-])cc1 [L-Ala p-nitroanilide, L-alanine p-nitroanilide]",acceptance as substrate for LTA4 hydrolase (in words),LTA4 hydrolase [5],the best
CCCCCCCC\C=C/C=C/C=C/[C@@H]1O[C@H]1CCCC(=O)O [LTA3],"inhibition of LTA4 hydrolase, type of inhibition (in words)",LTA4 hydrolase [1],irreversibly inhibited
"CCCCC/C=C\C\C=C/C=C/C=C/[C@@H]1O[C@H]1CCCC(=O)O [LTA4, 5(S)-5,6-oxido-7,9-trans-11,14-cis-eicosatetraenoic acid]",kcat /Km,LTA4 hydrolase [5]; [17],9.0 × 10^4 M^- x^-1
same,Vmax reported for native LTA4 hydrolase,LTA4 hydrolase [6],1.7 to 3.0 µmol/min/mg
same,Km,"LTA4 hydrolase [6]; native LTA4 hydrolase, read-out: Km reported for native LTA4 hydrolase",7 to 30 µM
same,"inhibition of LTA4 hydrolase, type of inhibition (in words)",LTA4 hydrolase [1],irreversibly inhibited
CC/C=C\C/C=C\C\C=C/C=C/C=C/[C@@H]1O[C@H]1CCCC(=O)O [LTA5],"inhibition of LTA4 hydrolase, type of inhibition (in words)",LTA4 hydrolase [1],irreversibly inhibited
"COC(=O)[C@@H](O)[C@H](Cc1ccccc1)NC(=O)OC(C)(C)C [N-Boc-2S, 3S)-AHPA methyl ester, N-Boc-(2S, 3S) -AHPA methyl ester]",inhibition of LTA4 hydrolase (in words),LTA4 hydrolase [3],no inhibition activity

# Reference: US5455271A, “Tight-binding inhibitors of leukotriene A4 hydrolase” (The Scripps Research Institute, priority 1993, dated 1995)
